Laboratory results: patent US9738634B2, “Heterocyclic amide compound and herbicide” (SYNGENTA PARTICIPATIONS AG, priority 2013, dated 2017)

Tests used:
Type in all cases: in vivo
barnyard grass [1] = assay: Test Example 1: weedkilling efficacy, preemergent weed treatment in the submerged state; A: barnyard grass
Outline: (§1)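 Emulsion diluted with water to the specified per-hectare dosage is applied onto flood water (4 cm) over alluvial soil on the sowing day, with barnyard grass, bulrush and pondweed seeded and rice (2.5-leaf) transplanted; plants grow at 25–30 °C and are rated at 3 weeks.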

bulrush [2] = assay: Test Example 1: weedkilling efficacy, preemergent weed treatment in the submerged state; B: bulrush
Outline: as §1

oval-leafed pondweed [3] = assay: Test Example 1: weedkilling efficacy, preemergent weed treatment in the submerged state; C: oval-leafed pondweed
Outline: as §1

transplanted rice = assay: Test Example 1: preemergent weed treatment in the submerged state, effect on crop; a: transplanted rice
Outline: as §1

barnyard grass [4] = assay: Test Example 2: weedkilling efficacy, growth period weed treatment in the submerged state; A: barnyard grass
Outline: (§2)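 First, alluvial soil in pots is flooded to 4 cm and mixed seed is sown. Next, plants grow in a greenhouse at 25 to 30° C until the 1-2 leaf stage. Then diluted emulsion is applied onto the water surface at the given g/ha rate, and injury is assessed after 3 weeks.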

bulrush [5] = assay: Test Example 2: weedkilling efficacy, growth period weed treatment in the submerged state; B: bulrush
Outline: as §2

oval-leafed pondweed [6] = assay: Test Example 2: weedkilling efficacy, growth period weed treatment in the submerged state; C: oval-leafed pondweed
Outline: as §2

crabgrass = assay: Test Example 3: weedkilling efficacy through soil treatment; D: crabgrass; conditions: soil treatment
Outline: (§3)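 Crop and weed responses were judged three weeks after a uniform surface spray of the water-diluted emulsion at the given g/ha rate. Seeds sat beneath about 1.5 cm of sterilized diluvial soil, and boxes stood in a greenhouse at 25 to 30° C.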

green foxtail = assay: Test Example 3: weedkilling efficacy through soil treatment; E: green foxtail; conditions: soil treatment
Outline: as §3

barnyard grass [7] = assay: Test Example 3: weedkilling efficacy through soil treatment; F: barnyard grass; conditions: soil treatment
Outline: as §3

wild oat = assay: Test Example 3: weedkilling efficacy through soil treatment; G: wild oat; conditions: soil treatment
Outline: as §3

black-grass = assay: Test Example 3: weedkilling efficacy through soil treatment; H: black-grass; conditions: soil treatment
Outline: as §3

Italian ryegrass = assay: Test Example 3: weedkilling efficacy through soil treatment; I: Italian ryegrass; conditions: soil treatment
Outline: as §3

common wind-grass = assay: Test Example 3: weedkilling efficacy through soil treatment; J: common wind-grass; conditions: soil treatment
Outline: as §3

Indian mallow = assay: Test Example 3: weedkilling efficacy through soil treatment; K: Indian mallow; conditions: soil treatment
Outline: as §3

redroot pigweed = assay: Test Example 3: weedkilling efficacy through soil treatment; L: redroot pigweed; conditions: soil treatment
Outline: as §3

chickweed = assay: Test Example 3: weedkilling efficacy through soil treatment; N: chickweed; conditions: soil treatment
Outline: as §3

catchweed = assay: Test Example 3: weedkilling efficacy through soil treatment; O: catchweed; conditions: soil treatment
Outline: as §3

birds-eye speedwell = assay: Test Example 3: weedkilling efficacy through soil treatment; p: birds-eye speedwell; conditions: soil treatment, treatment dosage 315 g/ha
Outline: as §3

directly sown rice = assay: Test Example 3: soil treatment, effect on crop; b: directly sown rice; conditions: soil treatment
Outline: as §3

corn = assay: Test Example 3: soil treatment, effect on crop; c: corn; conditions: soil treatment
Outline: as §3

soybean = assay: Test Example 3: soil treatment, effect on crop; d: soybean; conditions: soil treatment
Outline: as §3

wheat = assay: Test Example 3: soil treatment, effect on crop; e: wheat; conditions: soil treatment
Outline: as §3

beet = assay: Test Example 3: soil treatment, effect on crop; f: beet; conditions: soil treatment
Outline: as §3

rapeseed = assay: Test Example 3: soil treatment, effect on crop; g: rapeseed; conditions: soil treatment
Outline: as §3

fig-leafed goosefoot = assay: Test Example 3: weedkilling efficacy through soil treatment; M: fig-leafed goosefoot; conditions: soil treatment, treatment dosage 320 g/ha
Outline: as §3

## CC(C)(C(=O)Nc1cc(F)cc(F)n1)N1COCN(c2ccccc2)C1=O [A-2-13]
Barnyard grass [1]; treatment dosage 252 g/ha
  A: barnyard grass, weed kill grade: 5 (weed kill ratio 90% or more, (practically complete withering))
Bulrush [2]; treatment dosage 252 g/ha
  B: bulrush, weed kill grade: 5 (weed kill ratio 90% or more, (practically complete withering))
oval-leafed pondweed [3]; treatment dosage 252 g/ha
  C: oval-leafed pondweed, weed kill grade: 5 (weed kill ratio 90% or more, (practically complete withering))
Transplanted rice; treatment dosage 252 g/ha
  a: transplanted rice, effect on crop grade: 3 (weed kill ratio 40% or more, less than 70%)
Barnyard grass [4]; treatment dosage 252 g/ha
  A (barnyard grass) weedkilling efficacy grade: 5 (weed kill ratio 90% or more, (practically complete withering))
Bulrush [5]; treatment dosage 252 g/ha
  B (bulrush) weedkilling efficacy grade: 5 (weed kill ratio 90% or more, (practically complete withering))
oval-leafed pondweed [6]; treatment dosage 252 g/ha
  C (oval-leafed pondweed) weedkilling efficacy grade: 5 (weed kill ratio 90% or more, (practically complete withering))
crabgrass; treatment dosage 315 g/ha
  D: crabgrass, weedkilling efficacy grade: 5 (weed kill ratio 90% or more, (practically complete withering))
Green foxtail; treatment dosage 315 g/ha
  E: green foxtail, weedkilling efficacy grade: 5 (weed kill ratio 90% or more, (practically complete withering))
Barnyard grass [7]; treatment dosage 315 g/ha
  F: barnyard grass, weedkilling efficacy grade: 5 (weed kill ratio 90% or more, (practically complete withering))
Wild oat; treatment dosage 315 g/ha
  G: wild oat, weedkilling efficacy grade: 5 (weed kill ratio 90% or more, (practically complete withering))
black-grass; treatment dosage 315 g/ha
  H: black-grass, weedkilling efficacy grade: 5 (weed kill ratio 90% or more, (practically complete withering))
Italian ryegrass; treatment dosage 315 g/ha
  I: Italian ryegrass, weedkilling efficacy grade: 5 (weed kill ratio 90% or more, (practically complete withering))
Common wind-grass; treatment dosage 315 g/ha
  J: common wind-grass, weedkilling efficacy grade: 5 (weed kill ratio 90% or more, (practically complete withering))
Indian mallow; treatment dosage 315 g/ha
  K: Indian mallow, weedkilling efficacy grade: 5 (weed kill ratio 90% or more, (practically complete withering))
Redroot pigweed; treatment dosage 315 g/ha
  L: redroot pigweed, weedkilling efficacy grade: 5 (weed kill ratio 90% or more, (practically complete withering))
chickweed; treatment dosage 315 g/ha
  N: chickweed, weedkilling efficacy grade: 5 (weed kill ratio 90% or more, (practically complete withering))
catchweed; treatment dosage 315 g/ha
  O: catchweed, weedkilling efficacy grade: 5 (weed kill ratio 90% or more, (practically complete withering))
birds-eye speedwell
  P: birds-eye speedwell, weedkilling efficacy grade: 5 (weed kill ratio 90% or more, (practically complete withering))
Directly sown rice; treatment dosage 315 g/ha
  b: directly sown rice, effect on crop grade: 5 (weed kill ratio 90% or more, (practically complete withering))
corn; treatment dosage 315 g/ha
  c: corn, effect on crop grade: 4 (weed kill ratio 70% or more, less than 90%)
soybean; treatment dosage 315 g/ha
  d: soybean, effect on crop grade: 3 (weed kill ratio 40% or more, less than 70%)
wheat; treatment dosage 315 g/ha
  e: wheat, effect on crop grade: 5 (weed kill ratio 90% or more, (practically complete withering))
beet; treatment dosage 315 g/ha
  f: beet, effect on crop grade: 4 (weed kill ratio 70% or more, less than 90%)
rapeseed; treatment dosage 315 g/ha
  g: rapeseed, effect on crop grade: 5 (weed kill ratio 90% or more, (practically complete withering))

## COc1cc(Cl)nc(NC(=O)C(C)(C)N2COCN(c3ccccc3)C2=O)c1 [A-2-33]
Barnyard grass [1]; treatment dosage 315 g/ha
  A: barnyard grass, weed kill grade: 5 (weed kill ratio 90% or more, (practically complete withering))
Bulrush [2]; treatment dosage 315 g/ha
  B: bulrush, weed kill grade: 5 (weed kill ratio 90% or more, (practically complete withering))
oval-leafed pondweed [3]; treatment dosage 315 g/ha
  C: oval-leafed pondweed, weed kill grade: 5 (weed kill ratio 90% or more, (practically complete withering))
Transplanted rice; treatment dosage 315 g/ha
  a: transplanted rice, effect on crop grade: 4 (weed kill ratio 70% or more, less than 90%)
Barnyard grass [4]; treatment dosage 315 g/ha
  A (barnyard grass) weedkilling efficacy grade: 5 (weed kill ratio 90% or more, (practically complete withering))
Bulrush [5]; treatment dosage 315 g/ha
  B (bulrush) weedkilling efficacy grade: 5 (weed kill ratio 90% or more, (practically complete withering))
oval-leafed pondweed [6]; treatment dosage 315 g/ha
  C (oval-leafed pondweed) weedkilling efficacy grade: 5 (weed kill ratio 90% or more, (practically complete withering))
crabgrass; treatment dosage 315 g/ha
  D: crabgrass, weedkilling efficacy grade: 5 (weed kill ratio 90% or more, (practically complete withering))
Green foxtail; treatment dosage 315 g/ha
  E: green foxtail, weedkilling efficacy grade: 5 (weed kill ratio 90% or more, (practically complete withering))
Barnyard grass [7]; treatment dosage 315 g/ha
  F: barnyard grass, weedkilling efficacy grade: 4 (weed kill ratio 70% or more, less than 90%)
Wild oat; treatment dosage 315 g/ha
  G: wild oat, weedkilling efficacy grade: 4 (weed kill ratio 70% or more, less than 90%)
black-grass; treatment dosage 315 g/ha
  H: black-grass, weedkilling efficacy grade: 5 (weed kill ratio 90% or more, (practically complete withering))
Italian ryegrass; treatment dosage 315 g/ha
  I: Italian ryegrass, weedkilling efficacy grade: 5 (weed kill ratio 90% or more, (practically complete withering))
Common wind-grass; treatment dosage 315 g/ha
  J: common wind-grass, weedkilling efficacy grade: 5 (weed kill ratio 90% or more, (practically complete withering))
Indian mallow; treatment dosage 315 g/ha
  K: Indian mallow, weedkilling efficacy grade: 0 (weed kill ratio 5% or less (practically no effect))
Redroot pigweed; treatment dosage 315 g/ha
  L: redroot pigweed, weedkilling efficacy grade: 2 (weed kill ratio 20% or more, less than 40%)
chickweed; treatment dosage 315 g/ha
  N: chickweed, weedkilling efficacy grade: 4 (weed kill ratio 70% or more, less than 90%)
catchweed; treatment dosage 315 g/ha
  O: catchweed, weedkilling efficacy grade: 5 (weed kill ratio 90% or more, (practically complete withering))
birds-eye speedwell
  P: birds-eye speedwell, weedkilling efficacy grade: 5 (weed kill ratio 90% or more, (practically complete withering))
Directly sown rice; treatment dosage 315 g/ha
  b: directly sown rice, effect on crop grade: 3 (weed kill ratio 40% or more, less than 70%)
corn; treatment dosage 315 g/ha
  c: corn, effect on crop grade: 0 (weed kill ratio 5% or less (practically no effect))
soybean; treatment dosage 315 g/ha
  d: soybean, effect on crop grade: 0 (weed kill ratio 5% or less (practically no effect))
wheat; treatment dosage 315 g/ha
  e: wheat, effect on crop grade: 0 (weed kill ratio 5% or less (practically no effect))
beet; treatment dosage 315 g/ha
  f: beet, effect on crop grade: 1 (weed kill ratio 5% or more, less than 20%)
rapeseed; treatment dosage 315 g/ha
  g: rapeseed, effect on crop grade: 3 (weed kill ratio 40% or more, less than 70%)

## CC(C)(C(=O)Nc1cc(Cl)cc(Oc2ccccc2)n1)N1COCN(c2ccccc2)C1=O [A-2-35]
Barnyard grass [1]; treatment dosage 320 g/ha
  A: barnyard grass, weed kill grade: 5 (weed kill ratio 90% or more, (practically complete withering))
Bulrush [2]; treatment dosage 320 g/ha
  B: bulrush, weed kill grade: 5 (weed kill ratio 90% or more, (practically complete withering))
oval-leafed pondweed [3]; treatment dosage 320 g/ha
  C: oval-leafed pondweed, weed kill grade: 5 (weed kill ratio 90% or more, (practically complete withering))
Transplanted rice; treatment dosage 320 g/ha
  a: transplanted rice, effect on crop grade: 1 (weed kill ratio 5% or more, less than 20%)
Barnyard grass [4]; treatment dosage 320 g/ha
  A (barnyard grass) weedkilling efficacy grade: 4 (weed kill ratio 70% or more, less than 90%)
Bulrush [5]; treatment dosage 320 g/ha
  B (bulrush) weedkilling efficacy grade: 4 (weed kill ratio 70% or more, less than 90%)
oval-leafed pondweed [6]; treatment dosage 320 g/ha
  C (oval-leafed pondweed) weedkilling efficacy grade: 4 (weed kill ratio 70% or more, less than 90%)
crabgrass; treatment dosage 320 g/ha
  D: crabgrass, weedkilling efficacy grade: 4 (weed kill ratio 70% or more, less than 90%)
Green foxtail; treatment dosage 320 g/ha
  E: green foxtail, weedkilling efficacy grade: 3 (weed kill ratio 40% or more, less than 70%)
Barnyard grass [7]; treatment dosage 320 g/ha
  F: barnyard grass, weedkilling efficacy grade: 3 (weed kill ratio 40% or more, less than 70%)
Wild oat; treatment dosage 320 g/ha
  G: wild oat, weedkilling efficacy grade: 0 (weed kill ratio 5% or less (practically no effect))
black-grass; treatment dosage 320 g/ha
  H: black-grass, weedkilling efficacy grade: 3 (weed kill ratio 40% or more, less than 70%)
Italian ryegrass; treatment dosage 320 g/ha
  I: Italian ryegrass, weedkilling efficacy grade: 3 (weed kill ratio 40% or more, less than 70%)
Common wind-grass; treatment dosage 320 g/ha
  J: common wind-grass, weedkilling efficacy grade: 4 (weed kill ratio 70% or more, less than 90%)
Indian mallow; treatment dosage 320 g/ha
  K: Indian mallow, weedkilling efficacy grade: 0 (weed kill ratio 5% or less (practically no effect))
Redroot pigweed; treatment dosage 320 g/ha
  L: redroot pigweed, weedkilling efficacy grade: 0 (weed kill ratio 5% or less (practically no effect))
fig-leafed goosefoot
  M: fig-leafed goosefoot, weedkilling efficacy grade: 0 (weed kill ratio 5% or less (practically no effect))
chickweed; treatment dosage 320 g/ha
  N: chickweed, weedkilling efficacy grade: 0 (weed kill ratio 5% or less (practically no effect))
catchweed; treatment dosage 320 g/ha
  O: catchweed, weedkilling efficacy grade: 0 (weed kill ratio 5% or less (practically no effect))
Directly sown rice; treatment dosage 320 g/ha
  b: directly sown rice, effect on crop grade: 0 (weed kill ratio 5% or less (practically no effect))
corn; treatment dosage 320 g/ha
  c: corn, effect on crop grade: 0 (weed kill ratio 5% or less (practically no effect))
soybean; treatment dosage 320 g/ha
  d: soybean, effect on crop grade: 0 (weed kill ratio 5% or less (practically no effect))
wheat; treatment dosage 320 g/ha
  e: wheat, effect on crop grade: 0 (weed kill ratio 5% or less (practically no effect))
beet; treatment dosage 320 g/ha
  f: beet, effect on crop grade: 0 (weed kill ratio 5% or less (practically no effect))
rapeseed; treatment dosage 320 g/ha
  g: rapeseed, effect on crop grade: 1 (weed kill ratio 5% or more, less than 20%)
